Read-outs that look alike come from different tables or passages of the source.
Molecular target: T1, F508delCFTR (Homo sapiens, UniProt P13569, DEL508-508)
T1 construct: expressed in transfected cells; host or cells: CFBE41o- human lung-derived epithelial cells (CFBE4lo-F508delCFTR-HRP), doxycycline-inducible
Test: Cell Surface Expression-Horse Radish Peroxidase (CSE-HRP) Assay;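 on Maximum % activity (with co-corrector): co-corrector and positive control are both the same reference corrector at 2 µM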;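 on Maximum % activity (without co-corrector): percent of the 2 µM on-plate positive control corrector response above DMSO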
Assay type: cell-based
Settings: for Maximum % activity (with co-corrector) / Emax: maximum at any tested concentration, normalized to on-plate positive control; for Emax: read-out: Maximum % activity (without co-corrector)
Experimental: Cell Surface Expression-Horse Radish Peroxidase (CSE-HRP) Assay;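 on Maximum % activity (with co-corrector): co-corrector and positive control are both the same reference corrector at 2 µM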;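 on Maximum % activity (without co-corrector): percent of the 2 µM on-plate positive control corrector response above DMSO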
The development was achieved by expressing the F508delCFTR mutation along with a horseradish peroxidase (HRP) in the fourth exofacial loop, and then measuring the HRP activity using luminescence readout from these cells, CFBE4lo-F508delCFTR-HRP, that were incubated overnight with the test corrector compounds, either without or with the co-corrector. […] The test compounds were then added either without or with a co-corrector at the required concentrations and further incubated for 18-24 hours at 33° C. The highest concentration tested was 20 μM with an 8-point concentration response curve using a 3-fold dilution in both the test compound without or with the co-corrector. Three replicate plates were run to determine one EC50. All plates contained negative controls (dimethyl sulfoxide, DMSO) and positive control (2 μM of 3-[(2R,4R)-4-({[1-(2,2-difluoro-1,3-benzodioxol-5-yl)cyclopropyl]carbonyl}amino)-7-methoxy-3,4-dihydro-2H-chromen-2-yl]benzoic acid) as well as on-plate concentration response of the positive control. […] The raw counts from the experiment were analyzed using Accelrys® Assay Explorer v3.3.
1−[3*SDPositive Control+3*SDNegative Control/Absolute(MeanPositive Control−MeanNegative Control)]
wherein “SD” is standard deviation.
The % activity measured at each of the 8 test concentrations of the test compound added either without or with a co-corrector (2 μM of 3-[(2R,4R)-4-({[1-(2,2-difluoro-1,3-benzodioxol-5-yl)cyclopropyl]carbonyl}amino)-7-methoxy-3,4-dihydro-2H-chromen-2-yl]benzoic acid) was normalized to the on-plate positive control using the following formulae:
% activity(Test compound without co-corrector)=[(test compound without co-corrector response−DMSO response)/(positive control response−DMSO response)]*100
% activity(Test compound with co-corrector)=[(test compound with co-corrector response−DMSO response)/(positive control response−DMSO response)]*100
The maximum % activity achieved for the test compound either without or with a co-corrector at any tested concentration is presented in Table 4 along with the respective EC50's calculated using the following general sigmoidal curve with variable Hill slope equation (described as Model 42 in the Accelrys® Assay Explorer v3.3 software):
General sigmoidal curve with concentration, response, top, bottom, EC50 and Hill slope. This model describes a sigmoidal curve with an adjustable baseline, a. The equation can be used to fit curves where response is either increasing or decreasing with respect to the independent variable, “x”.
“x” is a concentration of drug under test. “y” is the response. “a” is the maximum response, and “d” is the minimum response “c” is the inflection point (EC50) for the curve. That is, “y” is halfway between the lower and upper asymptotes when x=c. “b” is the slope-factor or Hill coefficient. The sign of b is positive when the response increases with increasing dose and is negative when the response decreases with increasing dose (inhibition).

[1] = test compound without co-corrector, read-out: EC50 (without co-corrector)
[2] = with co-corrector (2 μM of 3-[(2R,4R)-4-({[1-(2,2-difluoro-1,3-benzodioxol-5-yl)cyclopropyl]carbonyl}amino)-7-methoxy-3,4-dihydro-2H-chromen-2-yl]benzoic acid), read-out: EC50 (with co-corrector)
[3] = test compound without co-corrector
[4] = CSE-HRP, test compound without co-corrector, read-out: EC50 (without co-corrector)
[5] = CSE-HRP, with co-corrector (2 μM of 3-[(2R,4R)-4-({[1-(2,2-difluoro-1,3-benzodioxol-5-yl)cyclopropyl]carbonyl}amino)-7-methoxy-3,4-dihydro-2H-chromen-2-yl]benzoic acid), read-out: EC50 (with co-corrector)
[6] = CSE-HRP, with co-corrector (2 μM)
[7] = with co-corrector (2 μM of 3-[(2R,4R)-4-({[1-(2,2-difluoro-1,3-benzodioxol-5-yl)cyclopropyl]carbonyl}amino)-7-methoxy-3,4-dihydro-2H-chromen-2-yl]benzoic acid)

T1 sequence (P13569 with tags, fused parts or gaps DEL508-508): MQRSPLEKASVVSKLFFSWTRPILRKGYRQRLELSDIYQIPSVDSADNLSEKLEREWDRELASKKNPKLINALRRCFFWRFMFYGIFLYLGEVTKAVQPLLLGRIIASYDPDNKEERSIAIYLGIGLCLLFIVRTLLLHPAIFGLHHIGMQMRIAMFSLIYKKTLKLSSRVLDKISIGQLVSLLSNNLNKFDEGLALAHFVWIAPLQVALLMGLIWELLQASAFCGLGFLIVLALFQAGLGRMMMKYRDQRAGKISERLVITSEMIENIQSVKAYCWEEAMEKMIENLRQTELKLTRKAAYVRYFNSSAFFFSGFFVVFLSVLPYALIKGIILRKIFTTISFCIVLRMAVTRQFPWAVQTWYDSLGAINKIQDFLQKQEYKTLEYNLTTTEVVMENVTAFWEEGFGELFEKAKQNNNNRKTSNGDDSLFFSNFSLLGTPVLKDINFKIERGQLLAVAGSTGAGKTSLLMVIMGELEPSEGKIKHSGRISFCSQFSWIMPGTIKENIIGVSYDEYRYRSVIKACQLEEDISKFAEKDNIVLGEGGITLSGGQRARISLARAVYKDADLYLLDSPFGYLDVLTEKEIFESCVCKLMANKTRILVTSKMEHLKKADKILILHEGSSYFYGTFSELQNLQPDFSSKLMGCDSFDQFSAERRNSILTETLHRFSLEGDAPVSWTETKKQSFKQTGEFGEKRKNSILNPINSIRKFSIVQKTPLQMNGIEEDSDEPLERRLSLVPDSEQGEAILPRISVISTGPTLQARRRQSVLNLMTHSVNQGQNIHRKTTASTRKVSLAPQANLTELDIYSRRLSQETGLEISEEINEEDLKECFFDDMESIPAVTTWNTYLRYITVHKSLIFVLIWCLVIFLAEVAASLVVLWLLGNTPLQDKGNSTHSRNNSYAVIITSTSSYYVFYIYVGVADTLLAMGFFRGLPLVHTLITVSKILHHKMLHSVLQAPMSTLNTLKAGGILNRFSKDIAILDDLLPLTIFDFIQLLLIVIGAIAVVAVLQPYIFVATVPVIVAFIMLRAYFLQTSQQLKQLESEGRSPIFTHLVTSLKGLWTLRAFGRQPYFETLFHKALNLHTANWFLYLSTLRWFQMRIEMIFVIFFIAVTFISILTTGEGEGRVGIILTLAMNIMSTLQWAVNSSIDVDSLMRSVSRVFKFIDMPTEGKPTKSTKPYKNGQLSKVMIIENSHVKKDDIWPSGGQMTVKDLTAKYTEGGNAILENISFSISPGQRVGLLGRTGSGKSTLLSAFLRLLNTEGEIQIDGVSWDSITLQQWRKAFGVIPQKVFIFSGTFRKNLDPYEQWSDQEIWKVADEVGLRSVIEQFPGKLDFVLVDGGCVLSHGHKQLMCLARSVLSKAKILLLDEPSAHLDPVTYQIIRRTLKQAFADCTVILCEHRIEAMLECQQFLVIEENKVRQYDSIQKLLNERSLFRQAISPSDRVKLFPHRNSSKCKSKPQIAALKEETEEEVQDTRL

EC50 [1]	EC50 [2]	Maximum % activity (with co-corrector) (with co-corrector (2 μM))	Emax (without co-corrector)	Emax [3]	EC50 [4]	EC50 [5]	Maximum % activity (with co-corrector) [6]	Emax (CSE-HRP, without co-corrector)	Maximum % activity (with co-corrector) [7]	Structure (SMILES)
< 1 µM	< 1 µM	+++ (≥350)	100 to 200%	–	–	–	–	–	–	COc1ncc(C(F)(F)F)cc1CN[C@H]1[C@H](C(C)(C)C)[C@@H](C(=O)O)N(C(=O)C2CCCCC2)[C@H]1c1cccc2c1OC(C)(C)C2 [Example 118, (2S,3S,4S,5S)-3-tert-butyl-1-(cyclohexanecarbonyl)-5-(2,2-dimethyl-2,3-dihydro-1-benzofuran-7-yl)-4-({[2-methoxy-5-(trifluoromethyl)pyridin-3-yl]methyl}amino)pyrrolidine-2-carboxylic acid]
1 to 10 µM	1 to 10 µM	+++ (≥350)	–	> 200%	–	–	–	–	–	CCC(C)(C)c1ccc(OC)c(CN[C@H]2[C@H](C(C)(C)C)[C@@H](C(=O)O)N(C(=O)OC(C)C)[C@H]2c2cccnc2N(C)C)c1 [III-232]
1 to 10 µM	1 to 10 µM	++ (≥150 and <350)	< 100%	–	–	–	–	–	–	COc1ccc(C(C)(C)C)cc1CN[C@H]1[C@H](C(C)(C)C)[C@@H](C(=O)O)N(C(=O)Cc2c[nH]cn2)[C@H]1c1ccccc1 [Example I-98]
–	–	–	–	–	1 to 10 µM	1 to 10 µM	+++ (≥350)	100 to 200%	–	COc1cc(C(F)(F)F)ccc1CN[C@@H]1[C@@H](C(C)(C)C)[C@H](C(=O)O)N(C(=O)C2CCCOC2)[C@@H]1c1ccccc1N(C)C (mixture of isomers) [II-22]
1 to 10 µM	1 to 10 µM	+++ (≥350)	100 to 200%	–	–	–	–	–	–	COc1ccc(C(C)(C)C)cc1CN[C@H]1[C@H](C(C)(C)C)[C@@H](C(=O)O)N(C(=O)OC2COC2)[C@H]1c1ccccc1 [Example I-244, (2S,3S,4S,5S)-3-tert-butyl-4-{[(5-tert-butyl-2-methoxyphenyl)methyl]amino}-1-{[(oxetan-3-yl)oxy]carbonyl}-5-phenylpyrrolidine-2-carboxylic acid]
1 to 10 µM	< 1 µM	+++ (≥350)	> 200%	–	–	–	–	–	–	COc1ccc(C(C)(C)C)cc1CN[C@H]1[C@H](C(C)(C)C)[C@@H](C(=O)O)N(C(=O)[C@@H]2CCCCO2)[C@H]1c1ccccc1C [Example 110, (2S,3S,4S,5S)-3-tert-butyl-4-{[(5-tert-butyl-2-methoxyphenyl)methyl]amino}-5-(2-methylphenyl)-1-[(2S)-oxane-2-carbonyl]pyrrolidine-2-carboxylic acid]
> 10 µM	1 to 10 µM	++ (≥150 and <350)	< 100%	–	–	–	–	–	–	CC(C)(C)[C@H]1[C@H](NCc2ccc3c(c2)OCCO3)[C@H](c2ccccc2)N(C(=O)C2CCCCC2)[C@@H]1C(=O)O [Example I-47]
–	–	–	–	–	1 to 10 µM	1 to 10 µM	+++ (≥350)	100 to 200%	–	COc1ncccc1CN[C@@H]1[C@@H](C(C)(C)C)[C@H](C(=O)O)N(C(=O)C2CCCCC2)[C@@H]1c1ccccc1 (racemic) [II-6]
1 to 10 µM	1 to 10 µM	+++ (≥350)	> 200%	–	–	–	–	–	–	COc1ccc(C(C)(C)C)cc1CN[C@H]1[C@H](C(C)(C)C)[C@@H](C(=O)O)N(C(=O)OC(C)C)[C@H]1c1cccnc1N1CCC1 [Example 99, (2S,3S,4S,5S)-5-[2-(azetidin-1-yl)pyridin-3-yl]-3-tert-butyl-4-{[(5-tert-butyl-2-methoxyphenyl)methyl]amino}-1-{[(propan-2-yl)oxy]carbonyl}pyrrolidine-2-carboxylic acid]
1 to 10 µM	1 to 10 µM	+++ (≥350)	< 100%	–	–	–	–	–	–	COc1cccc([C@@H]2[C@H](NCc3ccccc3OC(F)F)[C@@H](C(C)(C)C)[C@H](C(=O)O)N2C(=O)C2CCCCO2)n1 (mixture of isomers) [Example I-18]
> 10 µM	1 to 10 µM	–	–	< 100%	–	–	–	–	++ (≥150 and <350)	CCN(C)S(=O)(=O)NC(=O)[C@H]1[C@H](C(C)(C)C)[C@@H](Nc2cc(C(F)(F)F)cc(C)n2)[C@@H](c2ccccc2)N1C(=O)C1CCCCC1 (racemic) [III-55]
1 to 10 µM	1 to 10 µM	–	–	< 100%	–	–	–	–	++ (≥150 and <350)	COc1ccc(C(F)(F)F)cc1CN[C@@H]1[C@@H](C(C)(C)C)[C@@H](C(=O)O)N(C(=O)[C@H](OC)c2ccccc2)[C@H]1c1ccccc1 [II-395]
> 10 µM	1 to 10 µM	++ (≥150 and <350)	–	< 100%	–	–	–	–	–	CC(C)(C)[C@H]1[C@H](NCc2ccc(C#N)cc2F)[C@H](c2ccccc2)N(C(=O)C2CCCCC2)[C@@H]1C(=O)O [III-121]
1 to 10 µM	1 to 10 µM	+++ (≥350)	100 to 200%	–	–	–	–	–	–	COc1ccc(C(C)(C)C)cc1CN[C@H]1[C@H](C(C)(C)C)[C@@H](C(=O)O)N(C(=O)C2CCCS2(=O)=O)[C@H]1c1ccccc1 (stereo partly shown) [Example I-192]
–	–	–	–	–	1 to 10 µM	1 to 10 µM	+++ (≥350)	> 200%	–	COc1ccc(C(C)(C)C)cc1CN[C@H]1[C@H](C(C)(C)C)[C@@H](C(=O)O)N(C(=O)C(OC)C(C)C)[C@H]1c1ccccc1 (stereo partly shown) [II-267]
1 to 10 µM	1 to 10 µM	++ (≥150 and <350)	–	< 100%	–	–	–	–	–	COc1ccc(C(F)(F)F)cc1CN[C@H]1[C@H](C(C)(C)C)[C@@H](C(=O)O)N(C(=O)[C@H]2CCCC(F)(F)C2)[C@H]1c1ccccc1 [III-185]
1 to 10 µM	1 to 10 µM	–	–	100 to 200%	–	–	–	–	+++ (≥350)	COc1ncc(C2CCC2)cc1CN[C@H]1[C@H](C(C)(C)C)[C@@H](C(=O)O)N(C(=O)C2C3CCCC32)[C@H]1c1cccnc1N(C)C (stereo partly shown) [II-518]
> 10 µM	1 to 10 µM	++ (≥150 and <350)	–	< 100%	–	–	–	–	–	COc1ncc(C(F)(F)F)cc1N[C@H]1[C@H](C(C)(C)C)[C@@H](C(=O)O)N(C(=O)[C@H]2CCCC[C@@H]2C(F)(F)F)[C@H]1c1cccnc1N(C)C [III-212]
–	–	–	–	–	1 to 10 µM	1 to 10 µM	++ (≥150 and <350)	< 100%	–	COc1ccc(C(C)(C)C)cc1CN[C@H]1[C@H](C(C)(C)C)[C@@H](C(=O)O)N(C(=O)c2cccnc2C)[C@H]1c1ccccc1 [II-198]
–	–	–	–	–	1 to 10 µM	1 to 10 µM	+++ (≥350)	100 to 200%	–	COc1ccc(C(F)(F)F)cc1CN[C@H]1[C@H](C(C)(C)C)[C@@H](C(=O)O)N(C(=O)C2CCCO2)[C@H]1c1ccccc1 (mixture of isomers) [II-59]
1 to 10 µM	< 1 µM	–	–	100 to 200%	–	–	–	–	+++ (≥350)	COc1ncc(-c2ccc(F)cc2C)cc1CN[C@H]1[C@H](C(C)(C)C)[C@@H](C(=O)O)N(C(=O)C2CCCCC2)[C@H]1c1cccnc1N(C)C [II-409]
–	–	–	–	–	1 to 10 µM	1 to 10 µM	+++ (≥350)	< 100%	–	Cc1cc(C(F)(F)F)cc(N[C@@H]2[C@@H](C(C)(C)C)[C@H](C(=O)O)N(C(=O)OC(C)C)[C@@H]2c2ccccc2)n1 (racemic) [II-13]

Reference: patent US20180099931A1 (AbbVie S.à.r.l., priority 2016, published 2018)
